From patent US6924288B2, “Enantiomerically pure opioid diarylmethylpiperzine and methods of using same” (priority 2001, dated 2005) come the findings set out here.

What all share (type): in vivo
In data set [1] the test system is rats. Kind of data set: Tail pinch test for analgesia in rats. As to conditions: rat; for Analgesia (delay of response to tail pinch): 0.30 mg/kg i.v., cutoff 20 sec. How it is done: (§1) Analgesia was assayed in rats using the tail pinch test with simultaneous monitoring of capillary blood gases (pCO2). During this testing period respiratory depression values were also obtained. Male rats (Wistar Hannover 200-300 g) were anesthetized with 2% isoflurane (J. A. Webster, Inc., Sterling, Mass. The femoral artery was cannulated with PE50 tubing for blood sampling. The external jugular vein was also cannulated with Silastic tubing for drug injection. After surgery, anesthetic gases were removed and the rat was allowed to rest in a plastic restrainer for 60 minutes to establish baseline values of blood gases.
(§2) The compounds 1-6 were administered intravenous. Nociceptive response and respiratory values were obtained for a 1-2 hour period. The femoral artery cannulation was used to draw arterial blood into a syringe pre-wetted with heparin. Samples were then analyzed with a blood gas analyzer (Ph/Gas Analyzer Synthesis 25 Model, Instrumentation Laboratory) to assess respiratory depression effects. The volume of blood taken each time was 0.15 cc. The syringes were capped immediately and the blood gases analyzed within 5 minutes. The blood exposed to air at the tip of the syringe was expelled. The blood was mixed by gentle inversion and an aliquots of 0.10 cc was injected into the blood gas analyzer.
An artery clamp was placed on the tail (one inch from the tip of the tail) for a short duration until an escape response occurred (i.e. tail-flick or vocalization). The escape response latency was recorded by means of a stopwatch. A cutoff time of 20 sec. was used to prevent unnecessary tissue damage. […] The elapsed time to elicit a pain response was recorded as the tail pinch latency in seconds. Blood gases were monitored at approximately the same time points as the tail pinch test.
(§3) The ED50 values for analgesia potency and respiratory depression were determined to calculate the safety or therapeutic ratio, which is defined as the respiratory depression ED50 divided by analgesia ED50.

The nature of data set [2]: Respiratory depression by blood gas (pCO2) monitoring in rats. As to conditions: male, Wistar Hannover, in vivo; rat, intravenous. How it is done: as §1, §2
(§4) The gas analyzer was well maintained and operated. Calibrations (low, normal and high) were done at the beginning of every day of testing. The sample lines, co-oximeter and the blood gas electrode were cleaned regularly at the end of every day of testing. Hematocrit calibration (high and low) was scheduled on a weekly basis and tubing, sample and pinch valve were replaced on a monthly basis.
as §3

Data set [3] concerns rats. The data set is described as above. As to conditions: rat; for Respiratory Depression % Units Baseline pCO2: 0.30 mg/kg i.v. How it is done: as §1, §2, §4, §3

Turning to `C=CCN1C[C@H](C)N([C@H](c2ccsc2)c2cccc(O)c2)C[C@H]1C` [Compound 2, (−)3-((S)-((2S,5R)-4-allyl-2,5-dimethyl-1-piperazinyl)(3-thienyl)methyl)phenol], the “Analgesia (delay of response to tail pinch)” value in data set [1] (4 min.) turned out to be 20 s; in data set [1] (8 min.) it was 20 s; in data set [1] (32 min.), 12.3 s. The “Analgesic effect in words” value in data set [1] (i.v., tail pinch, FIGS. 1-6) is “safely maintains analgesia for an extended time”. In addition, the ED50 in data set [1] (intravenous, tail pinch, 20 sec cutoff) worked out at 0.046 mg/kg; in data set [2] it was 0.72 mg/kg. Besides, the “Respiratory Depression % Units Baseline pCO2” value in data set [3] (4 min.) amounted to 48%; in data set [3] (8 min.) it was 34%; in data set [3] (32 min.), 17%. The “Mortality due to respiratory depression” value in data set [3] (i.v.) is given as “without lethal respiratory depression”. Besides, the “Safety Ratio (respiratory depression ED50 divided by analgesia ED50)” value in data set [3] (intravenous) stood at 15.7. The “Safety ratio, times greater than any of the other enantiomeric compounds tested” value in data set [3] (intravenous) is reported as “at least six times greater”. In addition, in data set [3] (intravenous), the “Safety ratio, times greater than either of the racemic mixtures” value is recorded as not below 3 times.
